# Laboratory results published in article PMC11353420, “Anti-Inflammatory, Cytotoxic, and Genotoxic Effects of Soybean Oligopeptides Conjugated with Mannose” (Foods, 2024).
# Test system: Drosophila melanogaster
# Assay: Somatic mutation and recombination test (SMART, wing spot test)
# Type: in vivo
# Parameters: key to Statistical diagnosis vs DI (negative control), Small Single (1–2 Cells) / Statistical diagnosis vs DI (negative control), Large Single (>2 Cells) / Statistical diagnosis vs DI (negative control), Twin / Statistical diagnosis vs DI (negative control), Total Spots: + = positive; − = negative; i = inconclusive
# Settings: for Frequency of Mutant Spots per Individual (Number of Spots), Large Single (>2 Cells) / Frequency of Mutant Spots per Individual (Number of Spots), Small Single (1–2 Cells) / Frequency of Mutant Spots per Individual (Number of Spots), Total Spots / Frequency of Mutant Spots per Individual (Number of Spots), Twin: 40 wings
# Experimental: In brief, two strains of fruit flies, including mwh/mwh and ORR; flr^3/In(3LR) TM3, ri p^p sep l(3)89Aa bx^34e e Bd^S, were mated. […] After hatching, forty round wings were collected and analyzed for mutant spots (single, large, and twin spots). The statistical analysis for the wing spot test was performed as previously described. The Drosophila study was approved by the Institute of Nutrition—Mahidol University Institutional Animal Care and Use Committee (INMU-IACUC) (COA. No. INMU-IACUC 2023/01).
structure (smiles),measurement,setting,value
"OC[C@H]1OC(O)[C@@H](O)[C@@H](O)[C@@H]1O (stereo partly drawn) [Man, D-mannose]","Statistical diagnosis vs DI (negative control), Large Single (>2 Cells)",62.5 µg/mL,i
same,"Statistical diagnosis vs DI (negative control), Small Single (1–2 Cells)",62.5 µg/mL,−
same,"Statistical diagnosis vs DI (negative control), Twin",62.5 µg/mL,−
same,"Frequency of Mutant Spots per Individual (Number of Spots), Large Single (>2 Cells)",62.5 µg/mL,0.03 (1)
same,"Frequency of Mutant Spots per Individual (Number of Spots), Small Single (1–2 Cells)",62.5 µg/mL,0.40 (16)
same,"Frequency of Mutant Spots per Individual (Number of Spots), Total Spots",62.5 µg/mL,0.43 (17)
same,"Frequency of Mutant Spots per Individual (Number of Spots), Twin",62.5 µg/mL,0.00 (0)
same,"Statistical diagnosis vs DI (negative control), Large Single (>2 Cells)",125 µg/mL,i
same,"Statistical diagnosis vs DI (negative control), Small Single (1–2 Cells)",125 µg/mL,−
same,"Statistical diagnosis vs DI (negative control), Total Spots",125 µg/mL,−
same,"Statistical diagnosis vs DI (negative control), Twin",125 µg/mL,−
same,"Frequency of Mutant Spots per Individual (Number of Spots), Large Single (>2 Cells)",125 µg/mL,0.03 (1)
same,"Frequency of Mutant Spots per Individual (Number of Spots), Small Single (1–2 Cells)",125 µg/mL,0.50 (20)
same,"Frequency of Mutant Spots per Individual (Number of Spots), Total Spots",125 µg/mL,0.53 (21)
same,"Frequency of Mutant Spots per Individual (Number of Spots), Twin",125 µg/mL,0.00 (0)
same,"Statistical diagnosis vs DI (negative control), Large Single (>2 Cells)",250 µg/mL,i
same,"Statistical diagnosis vs DI (negative control), Small Single (1–2 Cells)",250 µg/mL,−
same,"Statistical diagnosis vs DI (negative control), Total Spots",250 µg/mL,−
same,"Statistical diagnosis vs DI (negative control), Twin",250 µg/mL,−
same,"Frequency of Mutant Spots per Individual (Number of Spots), Large Single (>2 Cells)",250 µg/mL,0.03 (1)
same,"Frequency of Mutant Spots per Individual (Number of Spots), Small Single (1–2 Cells)",250 µg/mL,0.43 (17)
same,"Frequency of Mutant Spots per Individual (Number of Spots), Total Spots",250 µg/mL,0.45 (18)
same,"Frequency of Mutant Spots per Individual (Number of Spots), Twin",250 µg/mL,0.00 (0)
same,"Statistical diagnosis vs DI (negative control), Large Single (>2 Cells)",500 µg/mL,i
same,"Statistical diagnosis vs DI (negative control), Small Single (1–2 Cells)",500 µg/mL,−
same,"Statistical diagnosis vs DI (negative control), Total Spots",500 µg/mL,−
same,"Statistical diagnosis vs DI (negative control), Twin",500 µg/mL,−
same,"Frequency of Mutant Spots per Individual (Number of Spots), Large Single (>2 Cells)",500 µg/mL,0.03 (1)
same,"Frequency of Mutant Spots per Individual (Number of Spots), Small Single (1–2 Cells)",500 µg/mL,0.25 (10)
same,"Frequency of Mutant Spots per Individual (Number of Spots), Total Spots",500 µg/mL,0.28 (11)
same,"Frequency of Mutant Spots per Individual (Number of Spots), Twin",500 µg/mL,0.00 (0)
same,"Statistical diagnosis vs DI (negative control), Large Single (>2 Cells)",1000 µg/mL,i
same,"Statistical diagnosis vs DI (negative control), Small Single (1–2 Cells)",1000 µg/mL,−
same,"Statistical diagnosis vs DI (negative control), Total Spots",1000 µg/mL,−
same,"Statistical diagnosis vs DI (negative control), Twin",1000 µg/mL,−
same,"Frequency of Mutant Spots per Individual (Number of Spots), Large Single (>2 Cells)",1000 µg/mL,0.03 (1)
same,"Frequency of Mutant Spots per Individual (Number of Spots), Small Single (1–2 Cells)",1000 µg/mL,0.25 (10)
same,"Frequency of Mutant Spots per Individual (Number of Spots), Total Spots",1000 µg/mL,0.28 (11)
same,"Frequency of Mutant Spots per Individual (Number of Spots), Twin",1000 µg/mL,0.00 (0)
same,"Statistical diagnosis vs DI (negative control), Large Single (>2 Cells)",2000 µg/mL,−
same,"Statistical diagnosis vs DI (negative control), Small Single (1–2 Cells)",2000 µg/mL,−
same,"Statistical diagnosis vs DI (negative control), Total Spots",2000 µg/mL,−
same,"Statistical diagnosis vs DI (negative control), Twin",2000 µg/mL,−
same,"Frequency of Mutant Spots per Individual (Number of Spots), Large Single (>2 Cells)",2000 µg/mL,0.00 (0)
same,"Frequency of Mutant Spots per Individual (Number of Spots), Small Single (1–2 Cells)",2000 µg/mL,0.23 (9)
same,"Frequency of Mutant Spots per Individual (Number of Spots), Total Spots",2000 µg/mL,0.23 (9)
same,"Frequency of Mutant Spots per Individual (Number of Spots), Twin",2000 µg/mL,0.00 (0)
same,"Statistical diagnosis vs DI (negative control), Large Single (>2 Cells)",5000 µg/mL,−
same,"Statistical diagnosis vs DI (negative control), Small Single (1–2 Cells)",5000 µg/mL,−
same,"Statistical diagnosis vs DI (negative control), Total Spots",5000 µg/mL,−
same,"Statistical diagnosis vs DI (negative control), Twin",5000 µg/mL,−
same,"Frequency of Mutant Spots per Individual (Number of Spots), Large Single (>2 Cells)",5000 µg/mL,0.00 (0)
same,"Frequency of Mutant Spots per Individual (Number of Spots), Small Single (1–2 Cells)",5000 µg/mL,0.18 (7)
same,"Frequency of Mutant Spots per Individual (Number of Spots), Total Spots",5000 µg/mL,0.18 (7)
same,"Frequency of Mutant Spots per Individual (Number of Spots), Twin",5000 µg/mL,0.00 (0)
same,DNA mutations / genome safety,"all doses, up to 5000 µg/mL",did not trigger DNA mutations
